Measurements taken from US20250188032A1, “NITROGEN-CONTAINING HETEROCYCLIC COMPOUNDS AND USES THEREOF” (BNH RESEARCH CO., LTD., priority 2022, published 2025).

B1: BDNF: brain-derived neurotrophic factor applied to the mice barrel cortex using Alzet osmotic pump (protein, UniProt P23560 19-247, looked up)
Neurotrophic factor BDNF …: APMKEANIRGQGGLAYPGVRTHGTLESVNGPKAGSRGLTSLADTFEHVIEELLDEDQKVRPNEENNKDADLYTSRVMLSSQVPLEPPLLFLLEEYKNYLDAANMSMRVRRHSDPARRGELSVCDSISEWVTAADKKTAVDMSGGTVTVLEKVPVSKGQLKQYFYETKCNPMGYTKEGCRGIDKRHWNSQCRTTQSYVRALTMDSKKRIGWRFIRIDTSCVCTLTIKRGR

Columns and labels:
[1] = system: C57BL/6J mice barrel cortex (layer 4); test: Synaptic function test: TC EPSC potency and GABA/AMPA ratio in barrel cortex (layer 4); type: in vivo
Excerpt: Eight weeks old male C57BL/6J mice were anesthetized with isoflurane during surgery. The mice were then be placed in a stereotaxic frame (RWD Life Science, China). The parietal and the frontal bones were exposed by a sagittal incision of the scalp at the midline from the level of the eyes to the occipital protuberance. A small burr hole was drilled after exposing the skull. The injection cannula was placed at the following coordinates: (Mouse: Bregma −3.30, lateral −1.50, and ventral 0.7 mm). Sterile saline solution (+/−a compound of the present disclosure) was perfused at a constant flow rate of 0.5 μL/h through the injection cannula using a mini-Os pump (DURECT Corporation ALZET Osmotic Pumps, CA). Implantation was done in layer 4 of the barrel cortex ipsilateral. To estimate extent of the diffusion of the injected compound in layer 4 barrel cortex during pump injection, methylene blue was first injected to stain the diffusion area. On average methylene blue diffused to […] away from the injection site (the total area of the barrel cortex region is about 1500 μm). Based on this analysis, the present inventors recorded from barrel cortex area.
2 mg of BnH12001 was dissolved in 800 ul of DMSO and prepared as a stock solution. For oral administration, BnH12001 DMSO stock:PEG400:Saline was mixed in a ratio of 5:55:40 and 200 μl/animal was administered. For the control group, a vehicle in which DMSO:PEG400:Saline was mixed in a 5:55:40 ratio was administered at 200 ul/animal. In the single drug administration test, the compound was administered once a day for about 11 to 12 days at a dose of 1 mg/kg. Dose response test was performed by administering the compound once a day for about 11 to 12 days at doses of 0.03, 0.1, 0.3, 1, 3, and 10 mg/kg. 5 mice were used for the compound administration group and the control group, respectively.
For TC or hippocampus slice preparation. 9 to 10 weeks-old male C57BL/6J mice were anesthetized with isoflurane. Then, the brain was rapidly cooled via transcardial perfusion with ice-cold sucrose-artificial cerebrospinal fluid (aCSF). The brain was removed and placed in ice-cold sucrose aCSF. Paracoronal slices were prepared at an angle of 50° relative to the midline on a ramp at an angle of 10°. Then, slices were incubated in aCSF at 35° C. for 30 minutes to recover. Slices were then incubated in aCSF at room temperature (23 to 25° C.) for 1 to 4 hours before being placed in the recording chamber for experiments. The standard aCSF contains saturated with 95% O2/5% CO2. The brain of the mouse was removed and cut into 400 μm at a 50° angle (mouse at a 55° angle) to attach the cut portion to the vibratome disc to be the bottom. Brain slice was incubated in 35° C. in aCSF solution for 30 minutes, or at RT in aCSF solution for 1 hour.
All electrophysiological experiments were conducted at 27 to 29° C. For electrophysiological experiments, electrodes with […] resistance were used and stimuli were applied to the ventral posteromedial nucleus (VPM) using a concentric bipolar electrode (FHC, Bowdoin, ME). The somatosensory cortex was identified by the presence of barrels under 4× magnification and differential interference contrast (DIC) optics, and by the ability to evoke short and constant latency field excitatory postsynaptic potentials (fEPSPs) by VPM stimulation. Whole-cell voltage-clamp recordings were made from stellate cells (SC) in layer IV of the somatosensory barrel cortex using infrared illumination and differential interference contrast (DIC) optics. The composition of whole cell recording solution is shown as follows:
Whole cell recordings were made using a multiclamp 700A (Molecular devices, Sunnyvale, CA) digitized at 10 kHz and filtered at 2 kHz. […]

[2] = system: 293T cells; test: Cytotoxicity test (CCK-8 cell viability) in 293T cells; type: cell-based, human; conditions: 24 hours co-incubation, 293T cell line, % of control
Protocol: Human undifferentiated neuroblastoma cell line SH-SY5Y and human embryonic kidney cell line (HEK)-293T were purchased from Korean Cell Line Bank (Korea) and Takara (Japan), respectively. Cells were grown in HyClone Minimal Essential Medium (MEM) and Dulbecco's Modified Eagle Medium (DMEM), respectively, supplemented with 10% (v/v) fetal bovine serum (FBS), penicillin (100 U/mL), and streptomycin ([…]). Cells were maintained in a humidified atmosphere of 95% air and 5% CO2 at 37° C. Cells were passaged 10 times at maximum. Cells were dissociated using 0.05% trypsin-EDTA solution and the cells were seeded in new culture dishes for maintenance.
To examine the cytotoxicity of compounds described herein in human cell lines, SH-SY5Y and 293T cells were used. Approximately 8,000 cells (for 293T) and 15,000 cells (for SH-SY5Y) were plated per well of a 96-well plate (SPL Life Sciences Co., Ltd., Pocheon, Korea). After incubating at 37° C. for 24 hours in a humidified atmosphere containing 5% CO2, the culture medium was replaced by a series of concentrations of test compounds diluted in the corresponding culture medium. The time of co-incubation was 24 hours and six replicates were made for each measurement. Finally, 10 μL of CCK-8 reagent (Dojindo Laboratories, Rockville, MD) was added to each well, and after incubation at 37° C. for 3 minutes, the OD at 450 nm was measured using a multifunction microplate reader (Tecan Infinite M200 Pro). These measurements were compared to that of a control and expressed as a percentage of the control to calculate cell viability. The IC50 value was calculated using SPSS software. To do this, the absorbance of the blank wells with only growth medium is subtracted from the values or the wells with cells. The readout value of background (vehicle) was set as a 100% viability, and then the percent viability for each test solution was calculated.
Cell viability (%)=[(As-Ab)/(Ac-Ab)]×100
The data was presented as the mean value and standard error of the mean (S.E.M.). Statistical analysis was performed with the one-way ANOVA with Tukey's post hoc test (GraphPad Prism 5 software package, version 5.02, GraphPad Software Inc. USA). Significance was accepted at p<0.05.

[3] = system: GluN2B; test: Western blot of GluN2B protein in cultured fetal cortical cells; type: cell-based, mice; conditions: for GluN2B expression, Western blot results, Mean: relative value, vehicle set to 1, treated for 24 hours, N 3 or more
Protocol: The amount of GluN2B reacted with the compound of the present disclosure was measured using Western blot. The fetal cerebral cortex was extracted from mice at 17 days of gestation, dissociated into single cells, cultured for 13 days, and treated with BnH drugs for 24 hours. The drug-treated cells were subjected to protein lysate preparation using RIPA protein lysis buffer containing protease and phosphatase inhibitors. The protein concentration was determined using a BCA protein assay kit (Pierce Biotechnology) using bovine serum albumin as a standard. Equal amounts of protein (20 μg per lane) were separated by electrophoresis on SDS-polyacrylamide gels at 90 V for 2 hours, then transferred from the SDS-polyacrylamide gel to PVDF membrane at 100 V for 1 hour. Then, primary reaction with GluN2B antibody (ab65783, Abcam) was performed at 4° C. for 1 day, washed three times at 10-minutes intervals with 1×PBT, and secondary reaction was performed with anti-mouse antibody (sc-2357, Santa Cruz) for 1 hour, followed by washing three times at 10-minutes intervals with 1×PBT. Western blotting was performed as described above to confirm GluN2B protein expression. Subsequently, each blot was re-probed using anti-β-actin antibody (sc-47778, Santa Cruz). Housekeeping protein β-actin was detected as a normalization control.
The increase and decrease of BnH12 series were confirmed by setting the vehicle to 1 (N for each group was 3 or more).
Using the experimental procedure described in Example 3, it was determined whether various BnH12 series compounds increase GluN2B expression, and the results are shown in Table 6. These in vitro experimental results are expressed as relative values to the group (vehicle) that was not treated with the compound, with the effect of the group set to 1.

[4] = oral, 1 mg/kg, 8-week-old C57BL/6J mice
[5] = applied to the mice barrel cortex using Alzet osmotic pump

Molecule	Cell viability test results (CCK) 10 uM [2] [%<]	Cell viability test results (CCK) 100 uM [2] [%<]	GluN2B expression, Western blot results, Mean [3]	also measured
C[C@H]1CC[C@@H](C(=O)O)CN1C(=O)Cc1ccc(F)cc1Cl [BnH12001 enantiomer (3R,6S, 98%<), (3R,6S)-1-(2-(2-chloro-4-fluorophenyl)acetyl)-6-methylpiperidine-3-carboxylic acid]	–	–	–	Balance of excitation/inhibition (GABA/AMPA ratio) [1, 4]: maintaining the balance of excitation/inhibition; Efficacy on TC synaptic potency compared among racemate and enantiomers [1, 4]: better efficacy than the racemate; TC synaptic potency in the sensory cortex [1, 4]: increase the TC synaptic potency
cyclotraxin B [reference compound]	–	–	–	BDNF-induced augmentation of TC EPSC potency ([1]; cyclotraxin B 1 μM application): almost completely prevented; BnH12001-induced increase of TC EPSC potency ([1]; cyclotraxin B 1 μM application): nearly completed hindered
C[C@H]1CC[C@@H](C(=O)O)CN1C(=O)Cc1ccc(O)cc1 [BnH12079, (3R,6S)-1-(2-(4-hydroxyphenyl)acetyl)-6-methylpiperidine-3-carboxylic acid]	99	90	1.062	–
C[C@H]1CC[C@@H](C(=O)O)CN1C(=O)Cc1ccccc1 [BnH12007, (3R,6S)-6-methyl-1-(2-phenylacetyl)piperidine-3-carboxylic acid]	95	95	1.311	–
C[C@H]1CCCCN1C(=O)Cc1ccccc1 [BnH12061, (S)-1-(2-methylpiperidin-1-yl)-2-phenylethan-1-one]	95	95	1.683	Effect on GluN2B expression compared to the vehicle ([3]; comment on Table 6): excellent effects
C[C@H]1CC[C@@H](C(=O)O)CN1C(=O)CC1CCCCC1 [BnH12006, (3R,6S)-1-(2-cyclohexylacetyl)-6-methylpiperidine-3-carboxylic acid]	99	95	1.238	–
O=C(NO)[C@@H]1CCCN1C(=O)Cc1ccc(F)cc1Cl [BnH12016, (S)-1-(2-(2-chloro-4-fluorophenyl)acetyl)-N-hydroxypyrrolidine-2-carboxamide]	99	90	1.311	–
B1	–	–	–	IPSC/EPSC ratio [1, 5]: without alteration; TC EPSC potency [1, 5]: significantly increased
